Series [1] addresses Mrp1 (Sus scrofa, UniProt K9IVJ9). Particulars: 2 μM FL-MTX, CPEC; direction taken from paragraph and Figure 10B.
Series [2] deals with choroid plexus epithelial cells.
Experimental: (§1) To assess CSF secretion by cultured CPEC, cells were cultured on permeable, polyester six-well Transwell® filter plates coated with 5 μg/ml laminin for 13 to 15 DIC. […] Following a 1 h preincubation with CSFB, 1.0 ml 1.0 μM 67 kDa fluorescent-dextran (FITC-dextran) in CSFB was added to both apical and basolateral chambers and secreted CSF volume (in μl/cm^2) was calculated as a function of FITC-dextran concentration change.
(§2) The permeability coefficient P of test compounds was calculated according to equation (2):
(§3) P=dc/dt×Vacceptor/A×c0 (2) MathType@MTEF@5@5@+=feaafiart1ev1aaatCvAUfKttLearuWrP9MDH5MBPbIqV92AaeXatLxBI9gBaebbnrfifHhDYfgasaacH8akY=wiFfYdH8Gipec8Eeeu0xXdbba9frFj0=OqFfea0dXdd9vqai=hGuQ8kuc9pgc9s8qqaq=dirpe0xb9q8qiLsFr0=vr0=vr0dc8meaabaqaciaacaGaaeqabaqabeGadaaakeaacqWGqbaucqGH9aqpdaWcaaqaaiabdsgaKjabdogaJbqaaiabdsgaKjabdsha0baacqGHxdaTdaWcaaqaaiabdAfawnaaBaaaleaacqWGHbqycqWGJbWycqWGJbWycqWGLbqzcqWGWbaCcqWG0baDcqWGVbWBcqWGYbGCaeqaaaGcbaGaemyqaeKaey41aqRaem4yam2aaSbaaSqaaiabicdaWaqabaaaaOGaaCzcaiaaxMaadaqadaqaaiabikdaYaGaayjkaiaawMcaaaaa@4C1D@
(§4) with dc/dt representing the change of the acceptor concentration over time, Vacceptor the acceptor volume, A the membrane surface area and c0 the initial donor concentration. Concentrations were assessed by analysis in a fluorescent plate reader (Ascent Fluoroscan) for fluorescent-labelled compounds.
Series [3] has as its system intact choroid plexus tissue. Conditions: intact choroid plexus tissue from guinea pig ref 47; cited from earlier work.
The test system of series [4] is Mrp1. Also noted: method as in PMID 10675353. Conditions: animals lacking Mrp1 ref 49; cited from earlier work.
Series [5] deals with choroid plexus epithelial cells. The experiment in a line: Permeability across choroid plexus epithelial cell (CPEC) monolayers on Transwell filters. Conditions: apical versus basolateral direction.
Experimental: as §1, §2, §3, §4

Each structure is given as a SMILES string.

Sequence of Mrp1 (Sus scrofa, UniProt K9IVJ9) (K9IVJ9 1-1532): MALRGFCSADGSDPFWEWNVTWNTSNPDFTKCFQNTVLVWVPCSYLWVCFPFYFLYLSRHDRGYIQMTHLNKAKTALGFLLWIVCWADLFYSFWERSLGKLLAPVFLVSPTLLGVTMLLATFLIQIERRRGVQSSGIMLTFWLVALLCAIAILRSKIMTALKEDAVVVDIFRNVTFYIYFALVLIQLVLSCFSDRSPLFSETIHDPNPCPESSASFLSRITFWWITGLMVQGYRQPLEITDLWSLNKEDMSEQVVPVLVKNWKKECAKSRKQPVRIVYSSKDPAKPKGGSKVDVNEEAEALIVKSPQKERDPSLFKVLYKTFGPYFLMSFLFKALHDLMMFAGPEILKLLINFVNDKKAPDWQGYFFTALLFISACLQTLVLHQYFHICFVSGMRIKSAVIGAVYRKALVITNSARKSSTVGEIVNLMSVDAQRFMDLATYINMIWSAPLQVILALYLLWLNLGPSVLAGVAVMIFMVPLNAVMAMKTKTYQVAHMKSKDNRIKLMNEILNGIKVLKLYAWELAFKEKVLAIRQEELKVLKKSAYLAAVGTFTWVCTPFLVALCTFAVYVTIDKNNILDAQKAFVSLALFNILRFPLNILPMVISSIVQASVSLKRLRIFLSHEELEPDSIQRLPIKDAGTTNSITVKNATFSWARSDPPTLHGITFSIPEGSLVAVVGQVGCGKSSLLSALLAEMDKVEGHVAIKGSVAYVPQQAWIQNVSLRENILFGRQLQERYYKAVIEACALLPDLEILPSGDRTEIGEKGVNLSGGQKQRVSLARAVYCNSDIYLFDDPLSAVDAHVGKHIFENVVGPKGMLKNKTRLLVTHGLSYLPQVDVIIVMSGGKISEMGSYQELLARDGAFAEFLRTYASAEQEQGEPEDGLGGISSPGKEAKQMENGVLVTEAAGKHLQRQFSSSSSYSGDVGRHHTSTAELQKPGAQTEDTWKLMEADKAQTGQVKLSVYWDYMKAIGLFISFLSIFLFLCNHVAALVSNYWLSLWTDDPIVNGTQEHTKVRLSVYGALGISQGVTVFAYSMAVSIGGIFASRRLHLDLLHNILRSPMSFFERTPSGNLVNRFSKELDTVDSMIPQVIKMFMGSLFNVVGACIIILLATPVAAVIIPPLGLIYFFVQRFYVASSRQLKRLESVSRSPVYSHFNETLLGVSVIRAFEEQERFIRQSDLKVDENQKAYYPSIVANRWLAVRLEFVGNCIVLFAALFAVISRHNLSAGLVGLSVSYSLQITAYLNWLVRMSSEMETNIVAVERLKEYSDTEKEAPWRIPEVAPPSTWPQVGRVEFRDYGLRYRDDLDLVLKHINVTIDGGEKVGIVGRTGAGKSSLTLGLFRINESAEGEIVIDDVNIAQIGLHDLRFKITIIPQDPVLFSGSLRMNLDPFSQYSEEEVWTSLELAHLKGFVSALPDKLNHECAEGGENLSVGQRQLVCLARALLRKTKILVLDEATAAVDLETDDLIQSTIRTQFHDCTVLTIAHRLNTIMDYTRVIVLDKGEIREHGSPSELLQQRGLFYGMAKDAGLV

As to `Nc1ccc(C(=O)NCC(=O)O)cc1` [p-aminohippuric acid], in series [1], the “effect on FL-MTX transport from the basolateral to the apical side” value is on record as “did not significantly affect”.
For the compound `O=C(O)c1ccc2c(c1)C(=O)OC21c2ccc(O)cc2Oc2cc(O)ccc21` [5-carboxyfluorescein], in series [2], the “Papp (apparent permeability coefficient)” value is 45 ×10⁻⁶ cm/s and the “Papp with opened tight junctions versus intact monolayer” value is “nearly doubling”.
As to `CC[C@]1(O)C[C@@H]2CN(CCc3c([nH]c4ccccc34)[C@@](C(=O)OC)(c3cc4c(cc3OC)N(C)[C@H]3[C@@](O)(C(=O)OC)[C@H](OC(C)=O)[C@]5(CC)C=CCN6CC[C@]43[C@@H]65)C2)C1` [vinblastine], the “influence on uptake of the Pgp substrate ritonavir” value in series [3] is reported as “not influenced”.
Take `COc1cc([C@@H]2c3cc4c(cc3[C@@H](O[C@@H]3O[C@@H]5CO[C@@H](C)O[C@H]5[C@H](O)[C@H]3O)[C@H]3COC(=O)[C@H]23)OCO4)cc(OC)c1O` [etoposide]: the “accumulation in CSF” value in series [4] is reported as “increased accumulation”.
Turning to `COC(=O)c1ccccc1-c1c2ccc(=N)cc-2oc2cc(N)ccc12` [rhodamine 123], the “preferred / directed transport across CP epithelial cells” value in series [5] is recorded as “no directed transport”.
Consider `CCCN(CCC)S(=O)(=O)c1ccc(C(=O)O)cc1` [probenecid], for which, in series [1], the “effect on FL-MTX transport from the basolateral to the apical side” value is reported as “did not significantly affect”.

Values taken from PMC1774582, “Choroid plexus epithelial monolayers – a cell culture model from porcine brain” (Cerebrospinal Fluid Research, 2006).
